# Test results as given in patent US8546447B2, “Treatment of acne using derivatives of 5-aminolevulinic acid” (Photocure ASA, priority 2004, dated 2013).
# Key:
# [1] = tested on: P. acnes; assay: PDT with CureLight LED 128 (Aktilite) lamp, P. acnes survival; format: cell-based, Propionibacterium acnes; settings: for PDT effect, photodynamic inactivation (FIG. 10) / kill: 0.4 mM; for PDT effect, photodynamic inactivation (FIG. 10): Aktilite 128 lamp; for kill: 10 minutes illumination; for bacteria killed: 26 minutes of illumination (78 J/cm^2)
# Experimental: (§1) Propionibacterium acnes (P. acnes) was obtained from American Type Culture Collection (ATCC No. 6919), and bacteria were grown anaerobically in the dark on blood-agar plates at 37° C.
# (§2) PIPES buffer (ca. 1 ml) was added to each blood-agar petri-plate and with the help of a sterile glass-rod and a Pasteur pipette, the bacteria solution was transferred to a 20 ml test-tube. The suspension was then diluted with PIPES buffer until the optical density (OD) was 1.00±0.01 at 550 nm as measured by a spectrophotometer. At this OD the bacteria density is approximately 5×10^8 cells per ml.
# (§3) A bacteria sample (100 μl of the suspension containing approx. 5×10^8 bacteria per ml) was collected and used as a t=0 control. Aliquots of the bacteria suspension were mixed with suitable volumes of the stock solutions of 5-ALA esters (containing 100 mM ALA ester) to obtain the appropriate concentrations and incubated for 4 hours at 37° C. in the dark. If illumination was not performed, survival was then assessed as described below.
# (§4) After treatment with ALA esters (with or without illumination), the treated bacteria samples (as well as untreated controls) were collected and further diluted with PIPES buffer to 1×10^4 bacteria per ml. Aliquots of 20 ml of this suspension were then transferred to Bactoagar Petri-dishes (Futsaether et al., Can. J. Microbiol., 39(2): 180-186 1993), and incubated for 3-5 days at 37° C. in the dark. The colonies formed on the Bactoagar Petri-plates were counted using a colony counter. Cell survival after incubation with different concentrations of 5-ALA esters is given relative to the control samples (i.e. samples collected at t=0 hrs and the sample collected after 4 hrs incubation without 5-ALA ester) and given as percent survival: Survival=[Ctreated/Ccontrol]×100%
# In order to compare the ALA hexyl ester and the ALA benzyl ester at the same concentration (1 mM), and also to test another light source, another experiment involving the use of a narrow-band red light (CureLight LED 128 lamp sold under the tradename Aktilite by Photocure ASA, Norway) was conducted. This lamp consists of 128 light emitting diodes (LED) and has a peak wavelength of 634±3 nm. The emission spectrum of the lamp has a full width at half maximum (FWHM) of 18 nm. The fluence rate at 50 mm distance is approx. 50 mW/cm^2 (max. fluence rate variation of the target area is ±10%).
# After incubation with the ALA esters, 10 ml bacterial suspensions were irradiated in a 5.5 cm plastic petri-dish (see general section above). The petri-dishes were placed on a support lying in a large water-reservoir at ambient temperature in order to avoid temperature effects. […] After 3-5 days of incubation (at 37° C. in the dark) the survival was determined as described in the general section and given relative to the non-illuminated control sample.
# Photodynamic inactivation of P. acnes after incubation with the 5-ALA esters listed in Example 9 (at 0.4 mM concentration) was studied following illumination with an Aktilite® 128 lamp.
# [2] = tested on: Propionibacterium acnes (P. acnes); assay: Dark toxicity of ALA esters in P. acnes (survival assay, colony forming ability); format: cell-based; settings: for % CFU (mean normalised colony-forming units): 4 hours in the dark at 37° C.; for dark toxicity (FIG. 2): Example 1, concentrations up to 20 mM, 4 hours in the dark
# Experimental: as §1
# PIPES buffer (ca. 1 ml) was added to each blood-agar petri-plate and with the help of a sterile glass-rod and a Pasteur pipette, the bacteria solution was transferred to a 20 ml test-tube. The suspension was then diluted with PIPES buffer until the optical density (OD) was 1.00±0.01 at 550 nm as measured by a spectrophotometer.
# as §3, §4
# In order to find suitable conditions for studying the photodynamic effect in P. acnes after incubation with ALA esters, a study was performed to assay the toxicity of the esters. This was done in the dark to avoid any PDT effect caused by stray light.
# In order to find suitable conditions for studying the photodynamic effect in P. acnes after incubation with benzyl-, 4-chlorobenzyl-, 4-nitrobenzyl-, 2-methylbenzyl-, 4-methylpentyl- and 2-methoxyethyl 5-aminolevulinate, a study was performed to assay the toxicity of these compounds. This was done in the dark, as in Example 1, to avoid any PDT effect caused by stray light.
# [3] = Itoh et al. 2001; Hongcharau et al. 2000; cited from earlier work
# [4] = tested on: P. acnes; assay: PDT with CureLight BroadBand lamp, P. acnes survival; format: cell-based, Propionibacterium acnes; settings: for effectiveness to kill the bacteria (FIG. 3): 4 mM methyl ester, 4 mM benzyl ester, 1 mM hexyl ester, red light 580-740 nm
# Experimental: as §1, §2, §3
# In some cases, illumination was performed on the bacteria-suspensions treated with ALA esters. The exact conditions are described in the Examples below. After illumination, survival was assayed as described below.
# as §4
# Bacteria suspensions (P. acnes) were treated with 4 mM ALA methyl ester, 4 mM benzyl ester and 1 mM hexyl ester (due to high dark toxicity results for this ester) as described in the general section above, diluted and illuminated using a CureLight BroadBand lamp (available from PhotoCure ASA, Norway, red light of 580-740 nm and a fluence rate of ≦840 W/m^2) under temperature controlled conditions (e.g. at ambient temperature). During illumination, 2×20 μl aliquots were collected every second minute for at total of 10 minutes and assayed for survival as described in the general section above. Relative survival after illumination was calculated relative to the control sample without red light exposure.
# [5] = tested on: P. acnes; assay: Intracellular porphyrin formation in P. acnes (fluorescence emission); format: cell-based, Propionibacterium acnes; settings: four hours incubation at 37° C. in the dark, various concentrations
# Experimental: To study the intracellular porphyrin formation after incubation with the ALA esters, bacteria (5×10^8 cells per ml, 10 ml) were incubated with ALA esters at 37° C. in the dark for four hours. The formation of porphyrins was followed by studying the fluorescence emission spectra (the porphyrins display characteristic peaks). The procedure was as follows:
# To assess the amount of endogenously retained porhyrins, 8 ml of the 5-ALA ester incubated bacteria were added to plastic test-tubes and incubated at 2-3° C. in the refrigerator to halt further 5-ALA ester uptake and/or porhyrin formation. Then the cells from were pelleted by centrifugation (5000 g, 5 rain, 2-3° C.), the supernatant discarded and the cells resuspended in fresh buffer (8 ml) and mixed well. Aliquots of 2 ml bacterial suspension were transferred to standard disposable plastic cuvettes, and fluorescence emission spectra of the cell suspensions were determined in a Perkin Elmer LS 50B fluorescence spectrometer using the following settings:
# Excitation wavelength, λx: 405 nm
# Emission wavelength, λe: 550-700 nm
# Excitation and emission slits: 5 nm
# Emission monochromator speed: 300 nm/min
# The fairly broad range of wavelengths measured was motivated by the need to have a control of the autofluorescence from the bacteria, which is most easily discernable at the lower or higher wavelengths.
# [6] = tested on: P. granulosum; assay: Dark toxicity in P. granulosum; format: cell-based, Propionibacterium granulosum
# Experimental: Propionibacterium granulosum (P. granulosum) was obtained from American Type Culture Collection (ATCC No. 25564).
# as §2, §3
# After treatment with ALA esters (with or without illumination), the treated bacteria samples (as well as untreated controls) were collected and further diluted with PIPES buffer to 1×10^4 bacteria per ml. […] The colonies formed on the Bactoagar Petri-plates were counted using a colony counter. […]
# [7] = tested on: P. avidum; assay: Dark toxicity in P. avidum; format: cell-based, Propionibacterium avidum
# Experimental: Propionibacterium avidum (P. avidum) was obtained from ATCC (ATCC No. 25577).
# as §2, §3
# After treatment with ALA esters (with or without illumination), the treated bacteria samples (as well as untreated controls) were collected and further diluted with PIPES buffer to 1×10^4 bacteria per ml. Aliquots of 20 ml of this suspension were then transferred to Bactoagar Petri-dishes (Futsaether et al., Can. J. Microbiol., 39(2): 180-186 1993), and incubated for 3-5 days at 37° C. in the dark. The colonies formed on the Bactoagar Petri-plates were counted using a colony counter. […]
# [8] = Example 9, concentrations up to 20 mM
# [9] = hexylester compared with benzylester
structure (smiles),measurement,setting,value
"COCCOC(=O)CCC(=O)CN [2-methoxyethyl, 2-methoxyethyl 5-aminolevulinate]","PDT effect, photodynamic inactivation (FIG. 10)",[1],weaker PDT effect
same,% CFU (mean normalised colony-forming units),[2]; 0.4 mM,75.5%
same,% CFU (mean normalised colony-forming units),[2]; 4 mM,60.8%
same,% CFU (mean normalised colony-forming units),[2]; 20 mM,54.0%
same,dark toxicity (in words),[2]; [8],almost no toxicity
"Cc1ccccc1COC(=O)CCC(=O)CN [2-methylbenzyl, 2-methylbenzyl ALA ester]",kill,[1],approx. 50%
same,"PDT effect, photodynamic inactivation (FIG. 10)",[1],good abilities to kill the bacteria
same,% CFU (mean normalised colony-forming units),[2]; 0.4 mM,66.0%
same,% CFU (mean normalised colony-forming units),[2]; 4 mM,1.2%
same,% CFU (mean normalised colony-forming units),[2]; 20 mM,0.0%
same,dark toxicity (in words),"[2]; Example 9, at 4 mM",considerable toxicity
"NCC(=O)CCC(=O)OCc1ccc(Cl)cc1 [4-chlorobenzyl, 4-chlorobenzyl ALA ester]",kill,[1],~100%
same,"PDT effect, photodynamic inactivation (FIG. 10)",[1],most efficient
same,% CFU (mean normalised colony-forming units),[2]; 0.4 mM,81.6%
same,% CFU (mean normalised colony-forming units),[2]; 4 mM,3.7%
same,% CFU (mean normalised colony-forming units),[2]; 20 mM,0.0%
same,dark toxicity (in words),"[2]; Example 9, at 4 mM",considerable toxicity
"CC(C)CCCOC(=O)CCC(=O)CN [4-methylpentyl, 4-methylpentyl ALA ester]","PDT effect, photodynamic inactivation (FIG. 10)",[1],weaker PDT effect
same,% CFU (mean normalised colony-forming units),[2]; 0.4 mM,86.5%
same,% CFU (mean normalised colony-forming units),[2]; 4 mM,37.3%
same,% CFU (mean normalised colony-forming units),[2]; 20 mM,0.5%
"NCC(=O)CCC(=O)OCc1ccc([N+](=O)[O-])cc1 [4-nitrobenzyl, 4-nitrobenzyl ALA ester]",kill,[1],~100%
same,"PDT effect, photodynamic inactivation (FIG. 10)",[1],most efficient
same,% CFU (mean normalised colony-forming units),[2]; 0.4 mM,63.5%
same,% CFU (mean normalised colony-forming units),[2]; 4 mM,61.8%
same,% CFU (mean normalised colony-forming units),[2]; 20 mM,53.2%
same,dark toxicity (in words),[2]; [8],almost no toxicity
"NCC(=O)CCC(=O)O [5-ALA, 5-amino-4-oxo-pentanoic acid]",adverse effects of ALA-PDT,[3],significant adverse effects
same,efficacy of ALA-PDT for treatment of acne,[3],may be effective
"CCCCCCOC(=O)CCC(=O)CN [ALA hexyl ester, Hexyl 5-aminolevulinate]",bacteria killed,[1]; 1 mM,40%
same,effectiveness to kill the bacteria (FIG. 3),[4],quite effective
same,dark toxicity (FIG. 2),[2],very toxic
same,inducing porphyrin formation (FIG. 5),[5],least effective
same,killed,"[6]; 4 mM, dark",100%
same,dark toxicity (FIG. 6),[6]; [9],considerably more toxic
same,killed,"[7]; 4 mM, dark",100%
same,dark toxicity (FIG. 6),[7]; [9],considerably more toxic
"COC(=O)CCC(=O)CN [ALA methyl ester, methyl ALA ester]",effectiveness to kill the bacteria (FIG. 3),[4],least effective
same,dark toxicity (FIG. 2),[2],essentially non-toxic
same,inducing porphyrin formation (FIG. 5),[5],slightly higher porphyrin levels
"NCC(=O)CCC(=O)OCc1ccccc1 [Benzyl, benzyl 5-aminolevulinate]",kill,[1],approx. 50%
same,"PDT effect, photodynamic inactivation (FIG. 10)",[1],good abilities to kill the bacteria
same,bacteria killed,[1]; 1 mM,killed all bacteria
same,photodynamic effect (FIG. 4),"[1]; 1 mM, LED lamp 634 nm",much better photodynamic effect
same,effectiveness to kill the bacteria (FIG. 3),[4],most effective
same,light dose sufficient to obtain 100% kill,"[4]; 4 mM, CureLight BroadBand lamp",approx. 10 J/cm^2
same,% CFU (mean normalised colony-forming units),[2]; 0.4 mM,78.3%
same,% CFU (mean normalised colony-forming units),[2]; 4 mM,62.9%
same,% CFU (mean normalised colony-forming units),[2]; 20 mM,15.0%
same,dark toxicity (FIG. 2),[2],intermediate toxicity
same,inducing porphyrin formation (FIG. 5),[5],by far the most effective inducer
